Molecular target: T1, Gag-Pol polyprotein [489-587] (Human immunodeficiency virus 1, UniProt P04585)
T1 construct: 489-587
Test: Inhibitory concentration against human immunodeficiency virus-1 protease; (Dimerization inhibitor)

Compound `CC[C@@H](C)[C@H](NC(=O)[C@H](CCC(N)=O)NC(=O)C1CCCN1C(=O)CCCCCCCCCCCCCCC(=O)N[C@@H](CO)C(=O)N[C@H](C(=O)N[C@@H](CC(C)C)C(=O)N[C@@H](CC(N)=O)C(=O)N[C@@H](Cc1ccccc1)C(=O)O)[C@H](C)O)C(=O)N[C@H](C(=O)N[C@@H](CC(C)C)C(=O)N[C@@H](Cc1c[nH]c2ccccc12)C(=O)O)[C@H](C)O` (some centres not stated) has an IC50 of 350 nM and a Ki of 220 nM.

Source: BindingDB's records for doi:10.1021/jm049581j (Purdue University, 2005)
